Reference: patent US7820656B2, “Pharmaceutical composition comprising N-aryl N′ morpholino/piperidino thiocarbamide derivatives for treating type II diabetes” (priority 2004, dated 2010)

Columns and labels:
RAW 264.7 cells = assay: Measurement of anti-inflammatory action (nitrites, Griess reaction, LPS-stimulated); assay type: cell-based; conditions: for Produced nitrites: 15 hours, control 3.3435, LPS 6.2775
Procedure: Nitrites accumulated in a cellular medium were measured as a marker of […] (NO) formation through a Griess reaction. RAW 264.7 cells were cultured in a medium containing DMEM, 10% FBS, penicillin (100 units/ml) and streptomycin sulfate (100 μg/ml) in a presence of 5% CO2, treated with N-aryl N′ morpholino/piperidino thiocarbamide derivatives in a content of 10 μg/ml and 100 μg/ml in a presence of LPS (1 μg/ml), followed by adding a Griess reagent 100 μl to the medium 100 μl 15 hours later to be cultured at room temperature for 10 minutes and measuring an absorbance at 540 nm. Nitrite content in a medium was evaluated by a standard curve using NaNO2.

HepG2 hepatocyte = assay: Measurement of glycogenesis ability (glycogen content, absorbance at 490 nm); assay type: cell-based; conditions: for Glycogenesis (absorbance): absorbance at 490 nm, control 0.103; for Rate of Increase(%) of glycogenesis: versus control
Procedure: Thereto, ethanol was added to precipitate glycogen, followed by dissolving the precipitated glycogen in conc. sulfuric acid. Glucose produced was reacted with phenol to obtain a stained product. An absorbance of the stained product was measured at 490 nm (J Applied Physiol, 1970, 28, 234-236).

HepG2 cells = assay: Measurement of lipid peroxide (TBARS); assay type: cell-based; conditions: for Average content of TBARS (%): control 100.0; for decrease of TBARS content compared with control group: HepG2, 24 hours (FIG. 4)
Procedure: HepG2 cells were cultured to administer N(4′-chlorophenyl) N′ morpholino thiocarbamide (10 μg/ml-100 μg/ml). After 24 hours, a cellular culture solution was removed to wash HepG2 cells with a phosphate buffer solution (PBS), prior to adding 0.1% Triton X-100 to detach the cells. The separated cell extracts were mixed with 20% acetic acid, pH 3.5 and 0.78% aqueous thiobarbituric acid solution. The mixture was heated at 95° C. for 1 hour and centrifuged at 3000 rpm for 15 minutes. The absorbance of the red supernatant was measured at 532 nm (Anal Biochem, 1979, 95, 351-358).

mouse = assay: Oral glucose tolerance test; assay type: in vivo; conditions: 80 mg/kg oral 1 h before glucose 2 g/kg oral; blood glucose at 30, 60, 120 min; compared with control (FIG. 1)
Procedure: A mouse was starved for 18 hours, prior to orally administering N(4′-chlorophenyl) N′ morpholino thiocarbamide to the mouse in a dose of 80 mg/kg. After an hour passed, Glucose of 2 g/kg was orally administered to measure blood glucose level in 30, 60, and 120 minutes using a blood glucose testing kit.

[1] = Measurement of lethal dose 50%; assay type: in vivo, mouse; conditions: mouse, in vivo; oral, mice
Procedure: (§1) The number of dead animal was counted after N(4′-chlorophenyl) N′ morpholino thiocarbamide was orally administered to 10 mice per a dose in a dose of 50 mg/kg, 500 mg/kg, and 5000 mg/kg.

mice = assay: Measurement of lethal dose 50%; assay type: in vivo, mouse; conditions: oral, 50 mg/kg, 500 mg/kg and 5000 mg/kg, 10 mice per dose
Procedure: as §1

insulin receptor = biological target: T1, insulin receptor (Mus musculus, UniProt P15208); assay: Phosphorylation measurement of insulin receptor tyrosin residues (hepatic lysate, immunoprecipitation, western blot); assay type: in vivo; conditions: 80 mg/kg to mouse starved 16 hours, liver after 1 hour; compared with control (FIG. 5)
T1 construct: the mouse was dissected to separate a liver at 4° C; from tissue; host or cells: mouse liver (hepatic lysate)
T1 sequence (P15208 28-748 limits assumed): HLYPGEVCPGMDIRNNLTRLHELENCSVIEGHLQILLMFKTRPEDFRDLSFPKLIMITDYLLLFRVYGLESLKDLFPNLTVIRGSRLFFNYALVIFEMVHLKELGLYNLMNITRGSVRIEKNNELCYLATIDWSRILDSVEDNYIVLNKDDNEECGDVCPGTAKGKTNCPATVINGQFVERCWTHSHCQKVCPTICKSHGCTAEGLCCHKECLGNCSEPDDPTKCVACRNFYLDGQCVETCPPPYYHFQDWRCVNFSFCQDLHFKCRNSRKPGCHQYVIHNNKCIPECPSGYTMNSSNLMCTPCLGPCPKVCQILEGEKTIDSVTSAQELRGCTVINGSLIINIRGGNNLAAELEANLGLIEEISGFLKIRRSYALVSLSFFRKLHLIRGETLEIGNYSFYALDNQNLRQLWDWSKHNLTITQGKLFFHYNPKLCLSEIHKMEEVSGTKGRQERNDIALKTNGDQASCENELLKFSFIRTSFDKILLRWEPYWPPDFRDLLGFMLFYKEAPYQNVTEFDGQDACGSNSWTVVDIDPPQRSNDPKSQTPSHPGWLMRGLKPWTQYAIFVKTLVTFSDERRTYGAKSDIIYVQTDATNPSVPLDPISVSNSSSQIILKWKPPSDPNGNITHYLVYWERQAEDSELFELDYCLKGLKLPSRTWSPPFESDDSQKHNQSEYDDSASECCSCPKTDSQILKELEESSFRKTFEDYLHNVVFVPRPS
Procedure: N(4′-chlorophenyl) N′ morpholino thiocarbamide in a dose of 80 mg/kg was administered to a male IC mouse starved for 16 hours. After an hour passed, the mouse was dissected to separate a liver at 4° C. Hepatic homogenization was provided by a little modification of conventional method (Zhao, H., Xu, H., Moore, E., Meiri, N., Quon, M. J., Alkon, D., L., Insulin receptors and spatial memory. J. Biol. Chem. 274, 34893-34902, 1999). The separated liver was suspended in a buffer A containing 50 mM Tris HCl, pH 7.4, 1 mM EDTA, 1 mM EGTA, 150 mM NaCl, 1% Triton X-100, 0.5 mM PMSF, 1 mM Na3VO4, leupeptin and aprotinin 1 μg/ml, and homogenized using a Potter-Elvehjem homogenizer. The lysate was centrifuged at 10,000×g for 20 minutes. The supernatant was analyzed on proteins and preserved at −70° C.
An immunoprecipitation was carried out by a known technique (Kim S. J., Kahn, C. R. Insulin stimulates phosphorylation of c-Jun, c-Fos and Fos-related proteins in cultured adipocytes. J. Biol. Chem. 269, 11887-11892, 1994). An equal amount of proteins from hepatic lysate were cultured with an insulin receptor antibody at 4° C. for 1 hour, followed by thereto adding protein A-cephalos to precipitate the immune complex by a centrifuge. […]

[2] = Measurement of body weight; assay type: in vivo; conditions: 80 mg/kg oral once a day for 3 consecutive weeks; administered group vs control (FIG. 6)
Procedure: Change of body weight was measured every week before and after N(4′-chlorophenyl) N′ morpholino thiocarbamide (80 mg/kg, PO) was administered.

[3] = tested on: streptozotocin-induced diabetic mouse; assay: Blood glucose lowering effect using a streptozotocin-induced diabetic mouse; assay type: in vivo; conditions: 80 mg/kg oral a day, 5 days a week, 3 consecutive weeks; STZ control almost 550 mg/dl (FIG. 2)
Procedure: A mouse was used two weeks after streptozotocin (50 mM citrate buffer, pH 4.5) was intraperitoneally administered to the mouse (J Gene Med. 2003, 5, 417-424). […] Change of blood glucose level was measured once a week.

[4] = Dosage 10 ug/ml with LPS 1 μg/ml
[5] = Dosage 100 ug/ml with LPS 1 μg/ml

Row | SMILES | % (produced nitrites; control 0, LPS 100) (RAW 264.7 cells; [4]) | Produced nitrites (RAW 264.7 cells; [4]) | % (produced nitrites; control 0, LPS 100) (RAW 264.7 cells; [5]) | Produced nitrites (RAW 264.7 cells; [5]) | Glycogenesis (absorbance) (HepG2 hepatocyte; Dosage 10 μg/ml) | Rate of Increase(%) of glycogenesis (HepG2 hepatocyte; Dosage 10 μg/ml) | Glycogenesis (absorbance) (HepG2 hepatocyte; Dosage 100 μg/ml) | Rate of Increase(%) of glycogenesis (HepG2 hepatocyte; Dosage 100 μg/ml) | Average content of TBARS (%) (HepG2 cells; Dosage 10 μg/ml) | Average content of TBARS (%) (HepG2 cells; Dosage 100 μg/ml) | blood glucose lowering effect in oral glucose tolerance test (mouse) | increase of glycogenesis compared with control group (HepG2 hepatocyte; 10 μg/ml, 24 hours, HepG2 (FIG. 3)) | LD50 [1] | number of dead animals (mice) | tyrosin phosphorylation of insulin receptors (insulin receptor) | change of body weight [2] | blood glucose level [3] | decrease of TBARS content compared with control group (HepG2 cells; 10 μg/ml) | decrease of TBARS content compared with control group (HepG2 cells; 100 μg/ml)
1 | Cc1ccccc1NC(=S)NN1CCOCC1 [2-methylphenyl] | 81.17% | 5.3155 µM | 66.14% | 5.284 µM | 0216 | 110% | 0.238 | 131% | 57.9% | 60.5% | – | – | – | – | – | – | – | – | –
2 | COc1cccc(NC(=S)NN2CCOCC2)c1 [3-methoxyphenyl] | 81.19% | 5.7255 µM | 56.99% | 5.0155 µM | 0.191 | 85% | 0.202 | 96% | 81.9% | 63.9% | – | – | – | – | – | – | – | – | –
3 | Cc1cccc(NC(=S)NN2CCOCC2)c1 [3-methylphenyl] | 81.19% | 5.7255 µM | 61.83% | 5.1575 µM | 0.189 | 83% | 0.325 | 216% | 67.5% | 66.3% | – | – | – | – | – | – | – | – | –
4 | S=C(Nc1ccc(Cl)cc1)NN1CCOCC1 [N(4′-chlorophenyl) N′ morpholino thiocarbamide] | 4.81% | 3.4845 µM | −9.85% | 3.0545 µM | – | – | – | – | – | – | remarkable blood glucose lowering effect | 49.89% | > 5000 mg/kg | no mouse was dead | noticeable tyrosin phosphorylation of insulin receptors | no difference in body weight | 300 to 400 mg/dL | 10.2% | 32%
5 | S=C(Nc1ccccc1)NN1CCOCC1 [phenyl (C11H15N3OS)] | 62.37% | 5.1735 µM | 48.93% | 4.779 µM | 0.301 | 195% | 0.225 | 118% | – | – | – | – | – | – | – | – | – | – | –
6 | S=C(Nc1ccccc1)NN1CCCCC1 [phenyl (C12H17N3S)] | 75.26% | 5.5515 µM | 74.20% | 5.5205 µM | 0.196 | 90% | 0.161 | 56% | 61.4% | 65.1% | – | – | – | – | – | – | – | – | –
